The series can be described thus: In vitro release testing of degarelix from microparticles. Particulars: effect of 10 pressure cycles vs no pressure cycling, manitol/acetate buffer pH 4, 37° C. It counts as physicochemical. The method, then:
In-vitro release of microparticles is conducted with a manitol/acetate buffer solution at pH 4. […] Each sample is analysed in triplicate.
A 25 mg sample is weighed out into a 25 mL volumetric flask. 1 mL of acetone is added to the volumetric flask to dissolve the microparticles. Once dissolved, the volumetric flask is topped up with water (approximately 24 mL), precipitating the polymer. A 1 mL sample of the supernatant is taken and centrifuged at 13000 rpm for 3 min. From this, a 200 μL sample is taken and analysed by HPLC. The loading determination method is carried out in triplicate and an average is taken.

Each structure is given as a SMILES string. Non-standard residues stand in square brackets, D forms with d. Residues, ends and D or L forms follow the SMILES beside them. *: point of attachment. dPhe(4-NHCONH2) = NC(=O)Nc1ccc(C[C@@H](N)C(=O)O)cc1; Dihydroorotyl(S) = O=C1C[C@@H](C(=O)*)NC(=O)N1; dPhe(4-Cl) = N[C@H](Cc1ccc(Cl)cc1)C(=O)O; Phe(4-NH2) = Nc1ccc(C[C@H](N)C(=O)O)cc1; d2Nal = N[C@H](Cc1ccc2ccccc2c1)C(=O)O; Lys(iPr) = CC(C)NCCCC[C@H](N)C(=O)O; d3Pal = N[C@H](Cc1cccnc1)C(=O)O

Regarding `CC(=O)N[C@H](Cc1ccc2ccccc2c1)C(=O)N[C@H](Cc1ccc(Cl)cc1)C(=O)N[C@H](Cc1cccnc1)C(=O)N[C@@H](CO)C(=O)N[C@@H](Cc1ccc(NC(=O)[C@@H]2CC(=O)NC(=O)N2)cc1)C(=O)N[C@H](Cc1ccc(NC(N)=O)cc1)C(=O)N[C@@H](CC(C)C)C(=O)N[C@@H](CCCCNC(C)C)C(=O)N1CCC[C@H]1C(=O)N[C@H](C)C(N)=O` [degarelix] (Ac-[d2Nal][dPhe(4-Cl)][d3Pal]S[Phe(4-NH2)](Dihydroorotyl(S))[dPhe(4-NHCONH2)]L[Lys(iPr)]P[dA]-NH2), the “decrease in the initial burst release of degarelix from the formulation” value is, setting by setting: (FIG. 1, PLGA formulation prepared with processing aid (DMSO)) “approximately 15%”; (FIG. 2, PLGA formulation prepared without a processing aid) “approximately 3%”.

The values above are taken from patent US20160235686A1, “PROCESSES FOR PREPARING A SOLID POLYMER MATRIX CONTAINING A CORE MATERIAL BY PRESSURE CYCLING OF SUPERCRITICAL FLUID” (priority 2013, published 2016).
